# Data taken from paper PMC5856786, “A DHODH inhibitor increases p53 synthesis and enhances tumor cell killing by p53 degradation blockage” (Nature Communications, 2018).
# Read-outs that look alike come from different tables or passages of the source.
# Key:
# ARN8 xenograft = assay: ARN8 subcutaneous xenograft; assay type: in vivo; settings: mice; (R)-HZ00 150 mg kg−1 i.p. q.d.; nutlin-3 100 mg kg−1 p.o. q.d.
# Protocol: All animal xenograft experiments were approved by the Norwegian Animal Research Authority and conducted according to The European Convention for the Protection of Vertebrates Used for Scientific Purposes. […] The health status and weight of the mice were monitored daily and they were randomized in a non-blinded manner into 4 groups when tumor volumes reached 30–40 mm^3. […] Tumor volumes were measured every second day by a digital caliper using the following ellipsoid formula: Volume = π (length × width × height)/6.
# To determine the efficacy of (R)-HZ05 in combination with nutlin-3a, 4 groups of NSG mice (n = 8 per group) were subcutaneously injected in the flank region with a single 100 μL injection of 2 × 10^6 ARN8 cells in a solution of PBS:Matrigel (volume ratio 3:1). Treatment was initiated when tumors reached ~50 mm^3. The maximum tolerated dose for this combination of drugs was previously determined for the strain we used. The endpoint of the experiment was determined by the tumor size ([…]) weight loss, and general condition of the mice according to The Norwegian Animal Research Authority.
# [1] = Pharmacokinetic study, nutlin-3 single or co-administered with (R)-HZ00; assay type: in vivo, NOD-SCID mice; settings: mice; nutlin-3 100 mg kg-1 oral + (R)-HZ00 150 mg kg-1 i.p.
# Protocol: (§1) Waters Acquity UPLC (Waters Corp.) was used for all LC/MS and LC/MS/MS experiments. For chromatographic separation a general gradient was used (5 % mobile phase B to 90 % over 2 min total run) on a C18 BEH 1.7 µm column 2 × 50 mm (Waters Corp.). Mobile phase A consisted of 5 % acetonitrile 0.1 % formic acid and mobile phase B 100 % acetonitrile 0.1 % formic acid. The flow rate was 0.5 mL min-1 and 3 µL of the sample was injected. A standard curve between 3−1000 nM was prepared for each compound.
# Cocrystallization, data collection and structure determination of DHODH with inhibitor HZ05 Co-crystals were prepared similar to previously described6. In short 18 mg mL-1 DHODH (dissolved in 10 mM N,N-dimethylundecylamine N-oxide (C11DAO) (Fluka), 400 mM NaCl, 1 mM EDTA, 100 mM HEPES (pH 7), and 30 % glycerol) was mixed in a 1:1 ratio with 2 M NH4SO4, 0.1 M Na Acetate pH 4.8, 30 mM N,N-dimethyldodecylamine N-oxide (DDAO), 15 mM C11DAO, 2 mM L-dihydroorotic acid, 1 mM HZ05 and 6 % DMSO. The crystals did grow from hanging drops at 20°C in a VDX plate; 2.5 µL protein solution mixed with 2.5 µL reservoir (30 % (v/v) glycerol, 0.1 M Na acetate pH 4.8 and 2 M NH4SO4). A crystal was flashfrozen in liquid nitrogen and data was collected to 1.7 Å at Diamond Light Source beamline i02. The structure was determined using Molecular Replacement and refined in Refmac57. […]
# [2] = test system: H1299 p53-null xenograft tumors; assay: H1299 p53-null xenograft; assay type: in vivo, mice
# Text: Error bars illustrate ± SEM with significance determined by Multiple Student’s t-tests. […] See supplementary information for detailed description of protocol. d) Pharmacokinetic study examining the effect of co-administration of nutlin-3a and (R)-HZ05 on the plasma concentration of nutlin-3a over time. See supplementary information for detailed description of protocol. e) In vivo activity of (R)- HZ05 alone and in combination with nutlin-3 on H1299 p53-null xenograft tumors (n ≥ 6). […] In the tumor volume graph, (**) on day 4 indicates a statistical difference of Control to HZ05 and to nutlin-3a; (*) on day 7 indicates a difference between Control and nutlin-3a; and (**) on day 12 indicates a statistical difference between Control, […] 19
# [3] = In vivo pharmacokinetic parameters of (R)-HZ05; parameters: species or system C57B1/6N mice; settings: for AUC(0-inf) / Cmax / Tmax / AUC / half-life / BA (%): mice; for AUC: read-out: AUC 0-h; for half-life: read-out: t (h) (half-life) (converted)
# Protocol: as §1, with “compound. […]” for “compound.”
# In vivo Pharmacokinetic Parameter Determination
# (R)-HZ05 was formulated for subcutaneous and oral administration at 5 mg mL-1 in 20 % hydroxypropyl-β-cyclodextrin in PBS and formulated at 5 mg mL-1 diluted in physiological NaCl. […]
# Blood was collected […]
# in EDTA tubes from three mice per time point and stored on ice with plasma separated within 30 min by centrifugation at 2000 g and stored at –80 ° C until analysis at 0.08, 0.25, 0.5, 1, 2, 3, 4, 6 and 24 h post administration. […] internal standard (9 nM warfarin) was added to each plasma sample and each sample was shaken at RT for 10 min followed by centrifugation at 2000 g for 30 min at 4 °C. […] of sample was injected into an Acquity UPLC coupled to a triple quadrupole mass spectrometer (Waters) operated in MRM mode with positive electrospray ionization. MRM transition 381.09 > […]
# CV and 40 V for CE) as a qualifier ion. Transition for internal standard was 309.16 > 163.005 (22 V for CV and 14 V for CE). Ion source conditions were: capillary voltage, 2000 V; desolvation temperature, 500 °C; desol vation gas flow rate, 1000 L h-1. Separation was conducted using a BEH C18 column (2.1 × 50 mm, 1.7 µm, Waters) using a linear gradient: 0 – 0.5 min, 5 % B; […], 100 % B, 1.61–2.00 min, 5 % B. Mobile phase A was 5 % acetonitrile with 0.1 % formic acid and B […]
# All animal experimentation was carried out by Sweden
# Contract In vivo Design AB in compliance with 2010/63/EU directive and approved by Stockholms Norra Djurförsöksetiska Nämnd (laboratory animal eth ical committee Stockholm) with the approval number N61/15. Any single plasma concentration value deviated by >10 times from the other two values was excluded from the pharmacokinetic evaluation, but was included in the figure. […]
# recombinant human DHODH = recombinant human DHODH (Homo sapiens, UniProt Q02127); assay: Kinetic DHODH enzyme assay (3,4-dimethoxy-5-methyl-p-benzoquinone, DCIP); assay type: biochemical; parameters: made in house; settings: Fig. 5a; average of three independent repeats ± SD
# Sequence of recombinant human DHODH (Q02127 29-395 limits assumed): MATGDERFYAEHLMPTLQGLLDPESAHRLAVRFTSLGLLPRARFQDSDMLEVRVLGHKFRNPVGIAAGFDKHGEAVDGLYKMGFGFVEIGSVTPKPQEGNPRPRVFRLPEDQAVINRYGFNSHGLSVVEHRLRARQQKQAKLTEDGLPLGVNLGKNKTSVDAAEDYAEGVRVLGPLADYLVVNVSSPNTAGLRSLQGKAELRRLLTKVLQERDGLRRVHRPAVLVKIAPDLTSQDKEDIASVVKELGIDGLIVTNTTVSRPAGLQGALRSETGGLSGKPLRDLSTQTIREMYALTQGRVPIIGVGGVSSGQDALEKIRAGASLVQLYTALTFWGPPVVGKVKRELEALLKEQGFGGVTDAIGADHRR
# Protocol: In Fig. 5a enzyme assays were optimized and performed with 6 nM recombinant human DHODH prepared as described. The reaction mixture for these kinetic assays consisted of 1 mM DL-dihydroorotic acid, 100 µM 3,4-dimethoxy-5-methyl-p-benzoquinone (#D9150, Sigma-Aldrich), and 100 µM DCIP in enzyme buffer. A stock solution of 20 mM DCIP was prepared in enzyme buffer and filtered through filter paper (20–25 μm pore size) just before use. Loss in absorbance by DCIP was measured at 595 nm at RT in a stepped time course (8 × 2 min, 8 × 3 min, 6 × 5 min). […] Therefore, for each concentration of inhibitor tested, a value for DHODH’s Vmax was estimated by linear regression within this time frame.
# [4] = female, C57B1/6N, mouse, plasma, iv, i.v, dose 5 mg kg-1
# [5] = female, C57B1/6N, mouse, plasma, po, p.o, dose 50 mg kg-1
# [6] = female, C57B1/6N, mouse, plasma, sc, s.c, dose 50 mg kg-1
smiles,measurement,setting,value
"COc1ccc(C2=N[C@@H](c3ccc(Cl)cc3)[C@@H](c3ccc(Cl)cc3)N2C(=O)N2CCNC(=O)C2)c(OC(C)C)c1 [nutlin-3, reference compound]",toxicity in xenograft study,ARN8 xenograft,treatments had to be discontinued after 9 days due to the toxicity
same,half-life on co-administration with (R)-HZ00,[1],not prolonged
O=C(N[C@@H]1CCCc2c1cnn2-c1ccccc1F)c1onc2c1CCCC2 [(R)-HZ05],synergy with nutlin-3a in p53-null xenograft,[2],no synergy
same,clearance,"[3]; female, C57B1/6N, mouse, plasma, iv, 5 mg kg-1, mice, i.v",5.4 L/h/kg
same,Vd,"[3]; female, C57B1/6N, mouse, plasma, iv, 5 mg kg-1, mice, i.v, read-out: Vd",8.3 L/kg
same,Vd,"[3]; female, C57B1/6N, mouse, plasma, iv, 5 mg kg-1, mice, i.v, read-out: Vss",3.6 L/kg
same,AUC(0-inf),[3]; [4],2.4 µM·h
same,Cmax,[3]; [4],6.1 µM
same,Tmax,[3]; [4],4.8 min
same,AUC,[3]; [4],2.4 µM·h
same,half-life,[3]; [4],1.1 h
same,AUC(0-inf),[3]; [5],9.9 µM·h
same,Cmax,[3]; [5],7.5 µM
same,Tmax,[3]; [5],15 min
same,AUC,[3]; [5],9.9 µM·h
same,half-life,[3]; [5],2.9 h
same,AUC(0-inf),[3]; [6],30 µM·h
same,Cmax,[3]; [6],14.9 µM
same,Tmax,[3]; [6],30 min
same,AUC,[3]; [6],30 µM·h
same,half-life,[3]; [6],2.5 h
same,BA (%),"[3]; p.o, dose 50 mg kg-1",41%
same,BA (%),"[3]; s.c, dose 50 mg kg-1",> 100%
same,IC50,recombinant human DHODH,0.011 ± 0.00094 µM
